The results in this text go back to ChEMBL document CHEMBL3271996, “Potential antitumor agents. Synthesis of bifunctional alpha-methylene-gamma-butyrolactones” (J Med Chem, 1976).

Converted amounts (≈) assume the structure as drawn. The source made the active and inactive calls. No cut-off for these calls is given here.

Data set [1] in a line: (§1) Cytotoxicity against human 9KB cells. The data set is classed as functional. Particulars: read-out: ED50 (the source's name).
The subject of data set [2] is L1210. Description: Antitumor activity against mouse L1210 cells allografted in mouse. The class given is functional.
Data set [3] relates to L1210. Briefly: Antitumor activity against mouse L1210 cells allografted in mouse at 100 to 400 mg/kg. The data set is classed as functional, organism-based.
Data set [4] deals with 9KB. The data set is described as §1. The data set is classed as functional.
Data set [5] has as its system W256. Description: Antitumor activity against rat Walker 256 cells allografted in rat. The class given is functional.
The species named for data set [6] is Rattus norvegicus. Briefly: Toxicity in rat Walker 256 cells allografted rat. The class given is organism-based.
Data set [7] concerns HeLa. Description: Cytotoxicity against human HeLa cells at 5 ug/ml. The data set is classed as functional, cell-based.
For data set [8], the system named is Rattus norvegicus. Description: Toxicity in rat Walker 256 cells allografted rat at 240 mg/kg. The data set is classed as organism-based. Conditions: in vivo. Set-up: dose 240 mg/kg.
Data set [9] relates to W256. Description: Antitumor activity against rat Walker 256 cells allografted in rat assessed as inhibition of tumor growth at 120 mg/kg. The data set is classed as functional. Particulars: read-out: TGI.
The subject of data set [10] is W256. Briefly: Antitumor activity against rat Walker 256 cells allografted in rat assessed as inhibition of tumor growth at 18.75 mg/kg. Conditions: read-out: TGI. The data set is classed as functional.
Data set [11] deals with Rattus norvegicus. Briefly: Toxicity in rat Walker 256 cells allografted rat at 37.5 mg/kg. The data set is classed as organism-based. Set-up: dose 37.5 mg/kg. Conditions: in vivo.

As for `C=C1CC(CCCCCC2CC(=C)C(=O)O2)OC1=O` (stereo not given), the EC50 in data set [1] stood at 15 µg/mL (≈ 56.7 µM). The outcome in data set [2] was inactive.
Consider `C=C1CCOC1=O` [TULIPALINE A], for which, in data set [1], the EC50 was 16 µg/mL (≈ 163 µM).
Consider `O=C1OCC/C1=C\OCCCCCCCCCCO/C=C1\CCOC1=O`, for which the outcome in data set [3] was inactive.
Regarding `O=C1OCC/C1=C\OCCCCCCO/C=C1\CCOC1=O`, the outcome in [3], in data set [4] and in data set [5] was inactive. Also, in data set [6], the Activity entry is given as “Non-toxic”.
With `C=C1CC(CCCCC2CC(=C)C(=O)O2)OC1=O` (stereo not given), the EC50 in data set [1] came out at 32 µg/mL (≈ 128 µM). Further, the result in data set [2] was inactive.
With `Cc1ccc(S(=O)(=O)O/C=C2\CCOC2=O)cc1`, the result in data set [3] and in data set [4] was inactive.
For `CC1(O/C=C2\CCOC2=O)C=CC(=O)O1` (stereo not given), the outcome in data set [7] was Active. For the same compound, the Activity entry in data set [8] is listed as “Toxic”. Moreover, the inhibition in vivo at 120 mg/kg in data set [9] was 27%.
In the case of `O=C1OCC/C1=C\OCCCCCO/C=C1\CCOC1=O`, the result in [3] was inactive.
As for `O=C(Cc1ccccc1)O/C=C1\CCOC1=O`, the result in data set [3] and in data set [4] was inactive.
In the case of `O=C1OCC/C1=C\OCCO/C=C1\CCOC1=O`, the result in data set [3] and in data set [4] was inactive.
For the compound `O=C1OCC/C1=C\OC(=O)c1ccccc1`, the result in [3] was inactive.
For the compound `C=C1CC(CCCCCCC2CC(=C)C(=O)O2)OC1=O` (stereo not given), in data set [1], the EC50 turned out to be 7 µg/mL (≈ 25.1 µM). Moreover, the outcome in data set [2] was inactive.
With `O=C1OCC/C1=C\OCCCCO/C=C1\CCOC1=O`, the outcome in [3] and in data set [4] was inactive.
Consider `O=C1OCC/C1=C\OCCCO/C=C1\CCOC1=O`, for which the outcome in data set [3] was inactive.
Regarding `C=C1CC(CCCC2CC(=C)C(=O)O2)OC1=O` (stereo not given), the EC50 in data set [1] came out at 4 µg/mL (≈ 16.9 µM). For the same compound, in [2], the outcome was inactive. In addition, in [10], the inhibition in vivo at 18.75 mg/kg came out at 45%. Also, in data set [11], the Activity result was “Toxic”.
